Reference: paper PMC8151276, “An Integrated Approach toward NanoBRET Tracers for Analysis of GPCR Ligand Engagement” (Molecules, 2021)
One block for each compound: values may come before it.

Molecular target: T1, DRD3 (Homo sapiens, UniProt P35462)
T1 construct: purchased Promega (in-house HiBiT-GPCR construct library, NanoBRET)
Assay: NanoBRET screen HiBiT-DRD3 in HEK293
Type: binding
Description: Each tracer candidate was screened across the entire library of HiBiT-GPCR constructs using NanoBRET as the detection modality. As depicted in Figure 4A, the specificity of interactions was evaluated through decrease in BRET due to competitive displacement of a bound tracer by excess parental compound. Each tracer was analyzed for binding to each HiBiT-GPCR fusion in the absence and in the presence of competing parental compound. Briefly, HEK293 cells were transfected with HiBiT-GPCR constructs diluted into promoterless DNA to reduce expression and maximize translocation to the cell surface. Each tracer candidate was then screened at concentrations of 1 μM and 0.1 μM across cells expressing these fusions. Cells were treated for 1.5 h with tracer either alone or in the presence of 20 μM competing parental compound (i.e., control). BRET was measured upon addition of purified LgBiT and subsequent complementation with HiBiT genetically fused to a GPCR. The specificity of interactions was assessed through a decrease in BRET signal due to competitive displacement of the bound tracer. To further gauge the robustness of these interactions, the fold response over the control (i.e., BRETtracer/BRETcontrol) was calculated. We chose a 1.5-fold response, which translates to ≥7-fold signal over noise as the minimal threshold required to score an interaction as positive.
HiBiT-GPCR DNA constructs were diluted in 10 mM Tris pH 8 to a final concentration of 0.01 μg/μL, arrayed in 96-well plates and stored at −20 °C. For transfection, HEK293 cells were suspended in Opti-MEM (without phenol red) supplemented with 2% fetal bovine serum (Seradigm) and 100 units/mL penicillin–streptomycin (Gibco) at a final concentration of 220,000 cells/mL and dispensed into white 96-well plates at 90 μL/well. Subsequent transfections and screens were carried using an Agilent Bravo Automated Liquid Handling Platform. First, the 96-well HiBiT DNA arrays were diluted 25-fold in Opti-MEM (without serum or phenol red) to a final concentration of 0.0004 μg/μL and 20 μL of the diluted DNAs were transferred into new 96-well plates. Next, promoterless carrier DNA (1 μg/μL) was diluted 25-fold (0.04 μg/μL) and then dispensed into the diluted arrays at 20 μL/well. Following brief mixing, Viafect transfection reagent (Promega) diluted 16-fold into Opti-MEM was dispensed into the plates at 40 μL/well. After mixing by pipetting, plates were incubated for 10 min on the pipetting station deck. The DNA-transfection reagent complexes were then added to plates containing cells. To facilitate the screen, 10 μL of DNA-transfection reagent complexes were added in duplicates to the top 4 and bottom 4 rows, resulting in two identical 48-well arrays per plate. Plates with transfected cells were incubated for 18–20 h at 37 °C/5% CO2. A screen of each tracer across the entire library using two different concentrations requires duplicate plates of transfected cells. Depending on the number of tracers being screened, transfections can be scaled up using the same ratios. The next day, for each tracer, four 20× screening solutions in tracer dilution buffer (Promega) were prepared: two duplicates at final concentration of 20 μM and two duplicates at a final concentration of 2 μM. […] The four resulting solutions were diluted 4-fold in Opti-MEM without serum or phenol red to generate 5× solutions (5 µM and 0.5 µM tracer +/− 100 μM competing compound). To screen the library, a BioTek MultiFlo FX liquid dispenser was used to dispense 22.5 µL of tracer solution to the top 4 rows and 22.5 µL tracer + competing compound solution to the 4 bottom rows. Plates were briefly mixed on an orbital shaker and incubated for 1.5 h at room temperature. […] Plates were briefly mixed on an orbital shaker and incubated for 15 min to allow complementation.

T1 sequence (P35462 whole entry): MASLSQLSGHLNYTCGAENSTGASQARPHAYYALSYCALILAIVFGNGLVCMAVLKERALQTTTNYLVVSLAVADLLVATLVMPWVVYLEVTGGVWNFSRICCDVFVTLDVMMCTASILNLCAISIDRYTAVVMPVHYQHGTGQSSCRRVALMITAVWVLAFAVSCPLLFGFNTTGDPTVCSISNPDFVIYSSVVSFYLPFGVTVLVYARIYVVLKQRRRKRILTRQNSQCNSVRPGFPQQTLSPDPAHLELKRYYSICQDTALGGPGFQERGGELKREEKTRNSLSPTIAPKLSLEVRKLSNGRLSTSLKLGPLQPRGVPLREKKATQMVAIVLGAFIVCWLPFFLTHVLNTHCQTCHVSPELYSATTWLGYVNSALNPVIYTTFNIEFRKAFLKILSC

NanoBRET Fold Response (DRD3, 0.1μM): 0.99
NanoBRET Fold Response (DRD3, 1μM): 1.01
Structure (SMILES): CCOC(=O)c1cc(C#N)c(N2CCC(C(=O)NS(=O)(=O)Cc3ccccc3/C=C/C(=O)NCCNC(=O)CCc3ccc4n3[B-](F)(F)[N+]3=C(c5ccc[nH]5)C=CC3=C4)CC2)nc1C [AZD1283-1-NB590]

NanoBRET Fold Response (DRD3, other tracers/Aminopotentidine (unmodified), 0.1μM): 1.16
NanoBRET Fold Response (DRD3, other tracers/Aminopotentidine (unmodified), 1μM): 1.64
Structure (SMILES): N#CN/C(=N\CCNC(=O)c1ccc(N)cc1)NCCCOc1cccc(CN2CCCCC2)c1 [Aminopotentidine (unmodified)]

NanoBRET Fold Response (DRD3, tracer 0.1μM): 1.25
NanoBRET Fold Response (DRD3, tracer 1μM): 1.17
Structure (SMILES): N#CN=C(NCCCOc1cccc(CN2CCCCC2)c1)NCCNC(=O)CCOCCOCCOCCOCCNC(=O)CCc1ccc2n1[B-](F)(F)[N+]1=C(c3ccc[nH]3)C=CC1=C2 [Aminopotentidine-2-NB590]

Structure (SMILES): CN(C)CCC=C1c2ccccc2CCc2ccc(C(=O)NCCNC(=O)CCOCCOCCOCCOCCNC(=O)CCc3ccc4n3[B-](F)(F)[N+]3=C(c5ccc[nH]5)C=CC3=C4)cc21 [Amitriptyline-a-2-NB590]
NanoBRET Fold Response (tracer at 0.1μM): 1.13
NanoBRET Fold Response (tracer at 1μM): 1.37

Structure (SMILES): CN(C)CCC=C1c2ccccc2CCc2ccc(C(=O)NCCNC(=O)CCOCCOCCOCCOCCNC(=O)CCc3ccc4n3[B-](F)(F)[N+]3=C(c5ccc[nH]5)C=CC3=C4)cc21 [Amitriptyline-b-2-NB590]
NanoBRET Fold Response (tracer at 0.1μM, listed as amitriptyline-b-2-NB590): 1.68
NanoBRET Fold Response (tracer at 1μM, listed as amitriptyline-b-2-NB590): 1.25

Structure (SMILES): CN(CCC=C1c2ccccc2CCc2ccccc21)C(=O)CCOCCOCCOCCOCCNC(=O)CCc1ccc2n1[B-](F)(F)[N+]1=C(c3ccc[nH]3)C=CC1=C2 [Amitriptyline-e-2-NB590]
NanoBRET Fold Response (tracer at 1μM): 1.24

NanoBRET Fold Response (0.1μM tracer): 1.14
NanoBRET Fold Response (1μM tracer): 1.27
Structure (SMILES): COc1ccc2c(n1)c(CCNC(C)=O)cn2CCNC(=O)CCc1ccc2n1[B-](F)(F)[N+]1=C(c3ccc[nH]3)C=CC1=C2 [Azamelatonin-1-NB590]

NanoBRET Fold Response (0.1μM tracer): 0.93
NanoBRET Fold Response (1μM tracer): 1.05
Structure (SMILES): COc1ccc2[nH]c(-c3ccc(CNC(=O)CCOCCOCCOCCOCCNC(=O)CCc4ccc5n4[B-](F)(F)[N+]4=C(c6ccc[nH]6)C=CC4=C5)cc3)c(CCNC(C)=O)c2n1 [AzomelatoninICO9-2-NB590]

NanoBRET Fold Response (DRD3, 0.1μM tracer): 2.22
NanoBRET Fold Response (DRD3, 1μM tracer): 2.49
Structure (SMILES): O=C(CCOCCOCCOCCOCCNC(=O)CCc1ccc2n1[B-](F)(F)[N+]1=C(c3ccc[nH]3)C=CC1=C2)NCCCN1CCN(C2=Nc3cc(Cl)ccc3Nc3ccccc32)CC1 [Clozapine-a-2-NB590]

Structure (SMILES): CN1CCN(C2=Nc3cc(Cl)ccc3Nc3ccc(CNC(=O)CCOCCOCCOCCOCCNC(=O)CCc4ccc5n4[B-](F)(F)[N+]4=C(c6ccc[nH]6)C=CC4=C5)cc32)CC1 [Clozapine-b-2-NB590]
NanoBRET Fold Response (DRD3, 0.1μM tracer): 1.54
NanoBRET Fold Response (DRD3, 1μM tracer): 2.63

Structure (SMILES): CN1CCN(C2=Nc3cc(Cl)ccc3N(CC(=O)NCCOCCOCCOCCOCCNC(=O)CCc3ccc4n3[B-](F)(F)[N+]3=C(c5ccc[nH]5)C=CC3=C4)c3ccccc32)CC1 [Clozapine-c-2-NB590]
NanoBRET Fold Response (DRD3, 0.1μM tracer): 0.96
NanoBRET Fold Response (DRD3, 1μM tracer): 0.76

Structure (SMILES): COc1ccccc1N1CCN(CCCCN2C(=O)c3ccc(CNC(=O)CCOCCOCCOCCOCCNC(=O)CCc4ccc5n4[B-](F)(F)[N+]4=C(c6ccc[nH]6)C=CC4=C5)cc3C2=O)CC1 [NAN-190-2-NB590]
NanoBRET Fold Response (DRD3, tracer 0.1μM): 2.36
NanoBRET Fold Response (DRD3, tracer 1μM): 1.69

Structure (SMILES): COc1ccccc1N1CCN(CCCCN2C(=O)c3ccc(CNC(=O)CCOCCNC(=O)c4ccc(CNC(=O)CCc5ccc6n5[B-](F)(F)[N+]5=C(c7ccc[nH]7)C=CC5=C6)cc4)cc3C2=O)CC1 [NAN-190-3-NB590]
NanoBRET Fold Response (DRD3, tracer 0.1μM): 2.25
NanoBRET Fold Response (DRD3, tracer 1μM): 1.52

Structure (SMILES): O=C(CCc1ccc2n1[B-](F)(F)[N+]1=C(c3ccc[nH]3)C=CC1=C2)NCc1ccc(C(=O)NCCOCCC(=O)N[C@@H]2CC[C@@]3(O)[C@H]4Cc5ccc(O)c6c5[C@@]3(CCN4CC3CC3)[C@H]2O6)cc1 [Naltrexone-3-NB590]
NanoBRET Fold Response (DRD3, tracer 0.1μM): 0.79
NanoBRET Fold Response (DRD3, tracer 1μM): 1.37

Structure (SMILES): Cc1cc2c(s1)Nc1ccccc1N=C2N1CCN(CCCNC(=O)CCOCCOCCOCCOCCNC(=O)CCc2ccc3n2[B-](F)(F)[N+]2=C(c4ccc[nH]4)C=CC2=C3)CC1 [Olanzapine-a-2-NB590]
NanoBRET Fold Response (DRD3, tracer 0.1μM): 1.74
NanoBRET Fold Response (DRD3, tracer 1μM): 2.07

Structure (SMILES): O=C(CCc1ccc2n1[B-](F)(F)[N+]1=C(c3ccc[nH]3)C=CC1=C2)NCc1ccc(C(=O)NCCOCCOCCNCC(O)COc2cccc3ccccc23)cc1 (stereo not drawn) [Propranolol-3-NB590]
NanoBRET Fold Response (DRD3, 0.1μM): 1.05
NanoBRET Fold Response (DRD3, 1μM): 1.30

Structure (SMILES): O=C(CCc1ccc2n1[B-](F)(F)[N+]1=C(c3ccc[nH]3)C=CC1=C2)NCCOCCOCCNC(=O)OCCOCCN1CCN(C2=Nc3ccccc3Sc3ccccc32)CC1 [Quetiapine-a-2-NB590]
NanoBRET Fold Response (DRD3, tracer 0.1μM): 1.56
NanoBRET Fold Response (DRD3, tracer 1μM): 1.98

Structure (SMILES): CC(C)N(CC[C@H](c1ccccc1)c1cc(CCNC(=O)CCOCCOCCOCCOCCNC(=O)CCc2ccc3n2[B-](F)(F)[N+]2=C(c4ccc[nH]4)C=CC2=C3)ccc1O)C(C)C [Tolterodine-2-NB590]
NanoBRET Fold Response (DRD3, tracer 0.1μM): 0.97
NanoBRET Fold Response (DRD3, tracer 1μM): 0.98

Structure (SMILES): CC(C)N(CC[C@H](c1ccccc1)c1cc(CCNC(=O)c2ccc(CNC(=O)CCc3ccc4n3[B-](F)(F)[N+]3=C(c5ccc[nH]5)C=CC3=C4)cc2)ccc1O)C(C)C [Tolterodine-BZ-NB590]
NanoBRET Fold Response (DRD3, tracer 0.1μM): 0.91
NanoBRET Fold Response (DRD3, tracer 1μM): 1.25

Structure (SMILES): CCCn1c(=O)c2[nH]c(-c3ccc(OCC(=O)NCCNC(=O)CCOCCNC(=O)c4ccc(CNC(=O)CCc5ccc6n5[B-](F)(F)[N+]5=C(c7ccc[nH]7)C=CC5=C6)cc4)cc3)nc2n(CCC)c1=O [XAC-3-NB590]
NanoBRET Fold Response (DRD3, tracer 0.1μM): 1.23
NanoBRET Fold Response (DRD3, tracer 1μM): 0.81
